Values joined by “and” are separate entries in the source; they are usually repeats but may differ in a detail not shown here. Identical values can stand only once.
What was measured:
[1] = tested on: genetisch hypertonen Ratten; assay: Antihypertensive effect: systolic blood pressure (tail cuff) in conscious genetically hypertensive rats, oral dosing once daily on four consecutive days; assay type: in vivo, Ratten (Stamm SHR/N/Ibm/Bm); settings: for Th.W. (Therapeutische Wirksamkeit): mean of quotient over the doses of Table I
Description: Zur Bestimmung der äntihypertensiven Wirkung werden die unten aufgeführten Verbindungen in den angegebenen Dosen an vier aufeinander folgenden Tagen an je 6 Ratten (Stamm SHR/N/Ibm/Bm, ♂, 250-350 g) mit genetisch bedingtem Hochdruck (RR > 180 mmHg) täglich einmal mittels Schlundsonde verabfolgt. Die Messung des Blutdrucks erfolgt jeweils 2, 6 und gegebenenfalls 24 Stunden nach Substanzgabe.
Die Blutdruckmessung wird in einer Wärmekammer bei 36°C vorgenommen, um eine bessere Durchblutung der Schwanzarterie zu erreichen. Hierzu werden die Tiere in perforierte Lochblechkäfige verbracht und 20 - 40 Min. nach Beginn der Aufwärmung gemessen. Zur Messung des systolischen arteriellen Drucks wird eine ringförmige Manschette mit aufblasbarer Gummimembran zur Unterbindung der Durchblutung und ein ringförmiger Piezökristallaufnehmer zur Erfassung der Pulswellen auf den Schwanz aufgeschoben. Nach erfolgter Unterbindung des Blutstroms in der Schwanzarterie wird der Manschettendruck kontinuierlich reduziert. […] Pulssignale und Druckverlauf werden zur Auswertung graphisch aufgezeichnet.
Zur Gewöhnung an den Meßvorgang werden die Tiere vor Substanzprüfung 14 Tage traniniert. In der zweiten Trainingswoche werden Blutdruck-Vorwerte erhoben. Tiergruppen, die Substanz erhälten, werden gegen eine Kontrollgruppe geprüft.

[2] = Oral toxicity (LD50) in mice, 14 days observation; assay type: in vivo; settings: mouse, in vivo, N=5/dose
Excerpt: (§1) Die Toxizitätsuntersuchungen werden an weiblichen NMRI-Mäusen (Körpergewicht 22 - 26 g) durchgeführt. Die Tiere (5 Tiere pro Dosis) erhalten Futter und Wasser ad libitum. Verschiedene Dosen der Substanzen werden oral verabreicht. Die Beobachtungsdauer beträgt 14 Tage. Die LD50, d.h. die Dosis bei der 50% der Tiere sterben, wird aus der Dosiswirkungskurve graphisch ermittelt.

weiblichen NMRI-Mäusen = assay: Oral toxicity (LD50) in mice, 14 days observation; assay type: in vivo; settings: N=5/dose
Excerpt: as §1

[3] = day 1 (2h, 6h and 24h Th.W. averaged), normalised to Th.W. Fusarsäure = 1
[4] = day 2, normalised to Th.W. Fusarsäure = 1
[5] = day 3 (6h and 24h Th.W. averaged), normalised to Th.W. Fusarsäure = 1
[6] = day 4 (2h and 6h Th.W. averaged), normalised to Th.W. Fusarsäure = 1

CCN(CC)CCCOC(=O)c1ccc(-c2ccccc2)cn1 [Beispiel 4]
Th.I. Fusarsäure = 1 [1, 3]: 10,9 | Th.I. Fusarsäure = 1 [1, 4]: 7,2 | Th.I. Fusarsäure = 1 [1, 5]: 6,5 | Th.I. Fusarsäure = 1 [1, 6]: 3,3

CCN(CC)CCCNC(=O)c1ccc(-c2ccc(Cl)cc2)cn1 [Beispiel 9]
LD50 at 336 h [2]: > 1000 mg/kg

CCCCc1ccc(C(=O)OCCCN(C)C)nc1 [lfd. Nr. 3, 5-n-Butylpyridin-2-carbonsäure-(3-dimethylaminopropyl)-ester]
BP (%-Änderungen) ([1]; 20,0 mg/kg p.o., day 1, 2h, listed as 2): -5% and -8% | BP (%-Änderungen) ([1]; 20,0 mg/kg p.o., day 1, 6h, listed as 2): -10% and -13% | BP (%-Änderungen) ([1]; 20,0 mg/kg p.o., day 1, 24h): 0% | BP (%-Änderungen) ([1]; 20,0 mg/kg p.o., day 2, 6h, listed as 2): -6% and -9% | BP (%-Änderungen) ([1]; 20,0 mg/kg p.o., day 3, 6h, listed as 2): -4% and -7% | BP (%-Änderungen) ([1]; 20,0 mg/kg p.o., day 3, 24h): -2% | BP (%-Änderungen) ([1]; 20,0 mg/kg p.o., day 4, 2h, listed as 2): -5% and -8% | BP (%-Änderungen) ([1]; 20,0 mg/kg p.o., day 4, 6h, listed as 2): -7% and -10% | Th.I. Fusarsäure = 1 [1, 3]: 4,3 | Th.W. (Therapeutische Wirksamkeit) ([1]; day 1, 2h): -5,6 %-Änderung BP / µmol/kg x 100 | Th.W. (Therapeutische Wirksamkeit) ([1]; day 1, 6h): -10,3 %-Änderung BP / µmol/kg x 100 | Th.W. (Therapeutische Wirksamkeit) ([1]; day 1, 24h): 1,3 %-Änderung BP / µmol/kg x 100 | Th.W. (Therapeutische Wirksamkeit) ([1]; day 2, 6h): -6,7 %-Änderung BP / µmol/kg x 100 | Th.I. Fusarsäure = 1 [1, 4]: 5,2 | Th.I. Fusarsäure = 1 [1, 5]: 2,5 | Th.W. (Therapeutische Wirksamkeit) ([1]; day 3, 6h): -4,5 %-Änderung BP / µmol/kg x 100 | Th.W. (Therapeutische Wirksamkeit) ([1]; day 3, 24h): 0,4 %-Änderung BP / µmol/kg x 100 | Th.I. Fusarsäure = 1 [1, 6]: 1,1 | Th.W. (Therapeutische Wirksamkeit) ([1]; day 4, 2h): -5,6 %-Änderung BP / µmol/kg x 100 | Th.W. (Therapeutische Wirksamkeit) ([1]; day 4, 6h): -7,6 %-Änderung BP / µmol/kg x 100

CCN(CC)CCCOC(=O)c1ccc(-c2ccccc2)cn1 [lfd. Nr. 4, 5-Phenylpyridin-2-carbonsäure-(3-diethylaminopropyl)-ester]
BP (%-Änderungen) ([1]; 10,0 mg/kg p.o., day 1, 2h): -4% | BP (%-Änderungen) ([1]; 10,0 mg/kg p.o., day 1, 6h): -10% | BP (%-Änderungen) ([1]; 10,0 mg/kg p.o., day 1, 24h): -6% | BP (%-Änderungen) ([1]; 10,0 mg/kg p.o., day 2, 6h): -10% | BP (%-Änderungen) ([1]; 10,0 mg/kg p.o., day 3, 6h): -13% | BP (%-Änderungen) ([1]; 10,0 mg/kg p.o., day 3, 24h): -12% | BP (%-Änderungen) ([1]; 10,0 mg/kg p.o., day 4, 2h): -13% | BP (%-Änderungen) ([1]; 10,0 mg/kg p.o., day 4, 6h): -12% | BP (%-Änderungen) ([1]; 20,0 mg/kg p.o., day 1, 2h): -3% | BP (%-Änderungen) ([1]; 20,0 mg/kg p.o., day 1, 6h): -2% | BP (%-Änderungen) ([1]; 20,0 mg/kg p.o., day 1, 24h): -6% | BP (%-Änderungen) ([1]; 20,0 mg/kg p.o., day 2, 6h): -8% | BP (%-Änderungen) ([1]; 20,0 mg/kg p.o., day 3, 6h): -14% | BP (%-Änderungen) ([1]; 20,0 mg/kg p.o., day 3, 24h): -5% | BP (%-Änderungen) ([1]; 20,0 mg/kg p.o., day 4, 2h): -6% | BP (%-Änderungen) ([1]; 20,0 mg/kg p.o., day 4, 6h): -9% | Th.I. Fusarsäure = 1 ([1]; day 1 (2h, 6h and 24h Th.W. averaged), normalised to Th.W. Fusarsäure = 1, listed as 5): 16,2 | Th.W. (Therapeutische Wirksamkeit) ([1]; day 1, 2h): -11,8 %-Änderung BP / µmol/kg x 100 | Th.W. (Therapeutische Wirksamkeit) ([1]; day 1, 6h): -23,7 %-Änderung BP / µmol/kg x 100 | Th.W. (Therapeutische Wirksamkeit) ([1]; day 1, 24h): -19,4 %-Änderung BP / µmol/kg x 100 | Th.W. (Therapeutische Wirksamkeit) ([1]; day 2, 6h): -30,2 %-Änderung BP / µmol/kg x 100 | Th.I. Fusarsäure = 1 ([1]; day 2, normalised to Th.W. Fusarsäure = 1, listed as 5): 23,2 | Th.I. Fusarsäure = 1 ([1]; day 3 (6h and 24h Th.W. averaged), normalised to Th.W. Fusarsäure = 1, listed as 5): 22,5 | Th.W. (Therapeutische Wirksamkeit) ([1]; day 3, 6h): -43,1 %-Änderung BP / µmol/kg x 100 | Th.W. (Therapeutische Wirksamkeit) ([1]; day 3, 24h): -31,2 %-Änderung BP / µmol/kg x 100 | Th.I. Fusarsäure = 1 ([1]; day 4 (2h and 6h Th.W. averaged), normalised to Th.W. Fusarsäure = 1, listed as 5): 6,0 | Th.W. (Therapeutische Wirksamkeit) ([1]; day 4, 2h): -34,5 %-Änderung BP / µmol/kg x 100 | Th.W. (Therapeutische Wirksamkeit) ([1]; day 4, 6h): -35,5 %-Änderung BP / µmol/kg x 100

COc1ccccc1N1CCN(CCCNC(=O)c2ccc(-c3ccccc3)cn2)CC1 [lfd. Nr. 5, 5-Phenylpyridin-2-carbonsäure-(3-[4-(2-methoxyphenyl)-piperazinyl-1]-propyl)-amid]
LD50 p.o. (weiblichen NMRI-Mäusen): ≫ 1000 mg/kg | BP (%-Änderungen) ([1]; 6,4 mg/kg p.o., day 1, 2h): -19% | BP (%-Änderungen) ([1]; 6,4 mg/kg p.o., day 1, 6h): -14% | BP (%-Änderungen) ([1]; 6,4 mg/kg p.o., day 1, 24h): -20% | BP (%-Änderungen) ([1]; 6,4 mg/kg p.o., day 2, 6h): -12% | BP (%-Änderungen) ([1]; 6,4 mg/kg p.o., day 3, 6h): -11% | BP (%-Änderungen) ([1]; 6,4 mg/kg p.o., day 3, 24h): -5% | BP (%-Änderungen) ([1]; 6,4 mg/kg p.o., day 4, 2h): -16% | BP (%-Änderungen) ([1]; 6,4 mg/kg p.o., day 4, 6h): -24% | BP (%-Änderungen) ([1]; 25,6 mg/kg p.o., day 1, 2h): -26% | BP (%-Änderungen) ([1]; 25,6 mg/kg p.o., day 1, 6h): -20% | BP (%-Änderungen) ([1]; 25,6 mg/kg p.o., day 1, 24h): -14% | BP (%-Änderungen) ([1]; 25,6 mg/kg p.o., day 2, 6h): -12% | BP (%-Änderungen) ([1]; 25,6 mg/kg p.o., day 3, 6h): -12% | BP (%-Änderungen) ([1]; 25,6 mg/kg p.o., day 3, 24h): -3% | BP (%-Änderungen) ([1]; 25,6 mg/kg p.o., day 4, 2h): -12% | BP (%-Änderungen) ([1]; 25,6 mg/kg p.o., day 4, 6h): -22% | Th.I. Fusarsäure = 1 [1, 3]: 70,6 | Th.W. (Therapeutische Wirksamkeit) ([1]; day 1, 2h): -89,8 %-Änderung BP / µmol/kg x 100 | Th.W. (Therapeutische Wirksamkeit) ([1]; day 1, 6h): -66,9 %-Änderung BP / µmol/kg x 100 | Th.W. (Therapeutische Wirksamkeit) ([1]; day 1, 24h): -82,7 %-Änderung BP / µmol/kg x 100 | Th.W. (Therapeutische Wirksamkeit) ([1]; day 2, 6h): -52,8 %-Änderung BP / µmol/kg x 100 | Th.I. Fusarsäure = 1 [1, 5]: 21,1 | Th.W. (Therapeutische Wirksamkeit) ([1]; day 3, 6h): -49,3 %-Änderung BP / µmol/kg x 100 | Th.W. (Therapeutische Wirksamkeit) ([1]; day 3, 24h): -20,3 %-Änderung BP / µmol/kg x 100 | Th.I. Fusarsäure = 1 [1, 6]: 14,7 | Th.W. (Therapeutische Wirksamkeit) ([1]; day 4, 2h): -66,9 %-Änderung BP / µmol/kg x 100 | Th.W. (Therapeutische Wirksamkeit) ([1]; day 4, 6h): -103,9 %-Änderung BP / µmol/kg x 100

CN(C)CCCNC(=O)c1ccc(-c2ccccc2)cn1 [lfd. Nr. 6, 5-Phenylpyridin-2-carbonsäure-(3-dimethylaminopropyl)-amid]
BP (%-Änderungen) ([1]; 6,4 mg/kg p.o., day 1, 2h, listed as 11): +2% | BP (%-Änderungen) ([1]; 6,4 mg/kg p.o., day 1, 6h, listed as 11): -1% | BP (%-Änderungen) ([1]; 6,4 mg/kg p.o., day 1, 24h, listed as 11): +10% | BP (%-Änderungen) ([1]; 6,4 mg/kg p.o., day 2, 6h, listed as 11): -14% | BP (%-Änderungen) ([1]; 6,4 mg/kg p.o., day 3, 6h, listed as 11): -10% | BP (%-Änderungen) ([1]; 6,4 mg/kg p.o., day 3, 24h, listed as 11): +4% | BP (%-Änderungen) ([1]; 6,4 mg/kg p.o., day 4, 6h, listed as 11): -10% | BP (%-Änderungen) ([1]; 25,6 mg/kg p.o., day 1, 2h, listed as 11): -7% | BP (%-Änderungen) ([1]; 25,6 mg/kg p.o., day 1, 6h, listed as 11): -9% | BP (%-Änderungen) ([1]; 25,6 mg/kg p.o., day 1, 24h): +4% | BP (%-Änderungen) ([1]; 25,6 mg/kg p.o., day 2, 6h, listed as 11): +3% | BP (%-Änderungen) ([1]; 25,6 mg/kg p.o., day 3, 6h, listed as 11): -15% | BP (%-Änderungen) ([1]; 25,6 mg/kg p.o., day 3, 24h, listed as 11): -10% | Th.I. Fusarsäure = 1 ([1]; day 1 (2h, 6h and 24h Th.W. averaged), normalised to Th.W. Fusarsäure = 1, listed as 11): -25,7 | Th.W. (Therapeutische Wirksamkeit) ([1]; day 1, 2h): 0,9 %-Änderung BP / µmol/kg x 100 | Th.W. (Therapeutische Wirksamkeit) ([1]; day 1, 6h): -11,8 %-Änderung BP / µmol/kg x 100 | Th.W. (Therapeutische Wirksamkeit) ([1]; day 1, 24h): 39,9 %-Änderung BP / µmol/kg x 100 | Th.W. (Therapeutische Wirksamkeit) ([1]; day 2, 6h): -48,0 %-Änderung BP / µmol/kg x 100 | Th.I. Fusarsäure = 1 ([1]; day 2, normalised to Th.W. Fusarsäure = 1, listed as 11): 36,9 | Th.I. Fusarsäure = 1 ([1]; day 3 (6h and 24h Th.W. averaged), normalised to Th.W. Fusarsäure = 1, listed as 11): 8,0 | Th.W. (Therapeutische Wirksamkeit) ([1]; day 3, 6h): -49,9 %-Änderung BP / µmol/kg x 100 | Th.W. (Therapeutische Wirksamkeit) ([1]; day 3, 24h): 23,6 %-Änderung BP / µmol/kg x 100 | Th.I. Fusarsäure = 1 ([1]; day 4 (2h and 6h Th.W. averaged), normalised to Th.W. Fusarsäure = 1, listed as 11): 5,2 | Th.W. (Therapeutische Wirksamkeit) ([1]; day 4, 6h): -36,2 %-Änderung BP / µmol/kg x 100

Source: patent EP0123700A1, “Substituted picolinic acids, processes for their preparation, their use, and pharmaceutical preparations containing them” (Byk Gulden Lomberg Chemische Fabrik GmbH, priority 1983, dated 1984)
